Laboratory results: patent publication US20250100961A1, “CHEMICAL ENTITIES FOR TREATING ACUTE MUSCULOSKELETAL PAIN, NON-SPECIFIC LOW-BACK PAIN, INFLAMMATORY ARTHRITIS RELATED DISEASES AND CONDITIONS, AND COMPOSITIONS AND METHODS THEREOF” (X-Cutag Therapeutics (Suzhou) Limited, priority 2023, published 2025)
Values belong to the compound of their own block, whether it stands above or below them.

What was measured:
[1] = Administration of CTG06-06 and methocarbamol to rats, LC-MS/MS of urine for parent drug and conjugates; type: in vivo; conditions: rat urine
Excerpt: Differentiation in drug conjugation reactions. […] […] Conjugation is a phase II metabolism reaction in which an acid, for example, glucuronic acid, acts as a conjugating agent to link to a phase I metabolite covalently. The conjugate so formed would be excreted to urine. To most drugs, this is a necessary detoxicating process. As for methocarbamol, this could be a disadvantage because the acid directly forms a conjugate with the drug itself, not its metabolite, and thus, to reduce drug plasma concentration level immediately after administration. This is due to the presence of an OH group in the chemical structure of methocarbamol, which readily allows it to form conjugates with an acid. To inhibit this pathway, CTG06-06 was designed with the OH group replaced by a fluorine (F). This modification is anticipated to slow the drug elimination rate while maintaining a consistently high drug plasma concentration.
Example 3: Co-Administration of CTG06-06 and Methocarbamol (1:1) to Rats and LC-MS/MS Analysis of Rat Urine Samples
Rat urine samples were collected after an oral dose of CTG06-06 and methocarbamol at 1:1 ratio (0.5 mg/kg each).

liver = conditions: in vivo; cited from earlier work
[2] = oral; cited from earlier work
[3] = test system: skeletal muscle contractility or motor nerve fiber; conditions: cited from earlier work
[4] = Co-incubation of methocarbamol and CTG06-05 in rat liver microsomes (1/1); type: in vitro ADME; conditions: co-incubated 1/1, FIG. 1
Excerpt: Differentiation in drug elimination half-lives. […] The elimination half-life (T1/2) is the time it takes for the elimination processes to reduce the concentration level or the amount of drug in the system by 50%. Elimination half-life is a composite pharmacokinetic parameter determined by both clearance and volume of distribution (Vd). Elimination half-life is increased by an increase in volume of distribution or a decrease in clearance, and vice versa.
Preparation of Reaction Mixture: The microsome reaction mixtures were prepared as follows: for a total volume of 285 μL of reaction mixture, 274.5 μL of 1×PBS, 3 μL of the test compound, and 7.5 μL of 5 mg/mL microsomes were added. As a negative control, microsome-free samples were prepared by substituting the microsome solution in the reaction mixture with an equal volume of 1×Phosphate Buffer Solution (pH 7.4). The reaction mixture was prepared in triplicates. In addition, dextromethorphan was used in this assay as a positive control.
Incubation and Processing of Reaction: The reaction mixture was initiated by adding 10 μL of NADPH and incubated in a water bath at 37° C. […]
LC-MS/MS analysis: Reversed-phase liquid chromatographic separation was carried out using ACE 3 C18 column (50×2.1 mm id, 3 μm). […] Compounds were monitored in positive mode over a five-minute acquisition period using a triple quadrupole mass spectrometer. […]

[5] = IV co-administration of CTG06-05 and methocarbamol (1:1) to mice, plasma concentrations by LC-MS/MS; type: in vivo; conditions: mouse plasma, 1/1 co-administration, IV 0.5 mg/kg each, FIG. 2
Experimental: Example 2: Co-Administration of CTG06-05 and Methocarbamol (1:1) to Mice and LC-MS/MS Analysis of Mouse Plasma Samples
Mouse plasma samples were collected at intervals of 2, 7, 10, 15, 30, 45, and 60 minutes after an IV dose of CTG06-05 and methocarbamol at a 1:1 ratio (0.5 mg/kg each). Plasma samples were extracted via protein precipitation. The supernatant at each time point was transferred to a clean vial and analyzed by LC-MS/MS as described in Example 1.

[6] = Co-administration of methocarbamol and CTG06-05 in rats, plasma time-concentration curves; type: in vivo, rat
Excerpt: Differentiation in drug toxicity profiles. Methocarbamol and CTG06-05 were co-administered in rats and plasma samples were collected at various timepoints. […] This indicates a distinct toxicity profile for CTG06-05 compared to methocarbamol, particularly when the toxicity is driven by Cmax. Cmax is the maximum (or peak) plasma concentration that a drug achieves in a specified compartment or test area of the body after the drug has been administered.
Differentiation in drug distribution volumes. Concentration ratios of CTG06-05 to methocarbamol in rat plasma samples from the aforementioned experiment were determined. […] Drug distribution volume (Vd) is defined as the total amount of drug in the body divided by its concentration in plasma. Vd reflects the degree to which the drug is present in extravascular tissues rather than in the plasma. Therefore, when the total amount of drug is the same, for example, 1:1 co-administration, drug plasma concentration is a direct parameter in Vd comparison. In other words, the higher the concentration, the lower the Vd.

Structure (SMILES): COc1ccccc1OCC(F)COC(N)=O (stereo not drawn) [CTG06-06]
- drug conjugation reaction ([1]; separate administration (FIG. 4 legend)): eliminates the drug conjugation reaction in rats

Structure (SMILES): COc1ccccc1OCC(O)COC(N)=O (stereo not drawn) [methocarbamol]
- liver toxicity (liver): No liver toxicity is observed
- time to peak plasma concentration [2]: two
- conjugates of the drug in urine ([1]; co-administered, oral 0.5 mg/kg each, LC-MS/MS, FIG. 4): methocarbamol and its conjugates were detected
- direct effect on skeletal muscle contractility or motor nerve fiber [3]: no direct effect

- C0 compared to methocarbamol [5]: lower C0
- T1/2 compared to methocarbamol [5]: longer T1/2
- drug distribution volume (Vd) compared to methocarbamol ([6]; inferred from plasma concentrations after 1:1 co-administration): lower Vd value than methocarbamol
- initial concentration in plasma compared to methocarbamol ([6]; rat plasma, co-administered, FIG. 2): lower than that of methocarbamol
- concentration ratio of CTG06-05 to methocarbamol in plasma ([6]; rat plasma, co-administered, FIG. 3): increased with time
Structure (SMILES): [2H]c1c([2H])c([2H])c(OC([2H])([2H])[2H])c(OCC(O)COC(N)=O)c1[2H] (stereo not drawn) [CTG06-05]
- drug elimination half-life compared to methocarbamol [4]: longer drug elimination half-life compared to methocarbamol
- later concentration in plasma compared to methocarbamol ([6]; rat plasma, co-administered, later timepoints, FIG. 2): eventually exceeded that of methocarbamol
